The record followed here is US8828991B2, “Azacyclyl-substituted arylthienopyrimidinones, process for their preparation and their use as medicaments” (Sanofi, priority 2006, dated 2014).

This experiment has as its target T1, human MCH receptor (Homo sapiens, UniProt Q99705).
T1 construct: expressed in transfected cells
Briefly: calcium immobilization assay: functional IC50 of MCH1R antagonists (cellular calcium flux, FLIPR). The experiment is classed as cell-based. The following applies: recombinant HEK293 cell line expressing the human MCH receptor, calcium flux after addition of agonist (MCH). An excerpt:
Influence on the MCH receptor in vitro; determination of functional IC50 values of MCH1R antagonists
Cloning of the cDNA for the human MCH receptor, preparation of a recombinant HEK293 cell line which expresses the human MCH receptor, and functional measurements with the recombinant cell line took place in analogy to the description by Audinot et al. (J. Biol. Chem. 276, 13554-13562, 2001). A difference from the reference was, however, the use of the plasmid pEAK8 from EDGE Biosystems (JSA) for the construction of the expression vector. The host used for the transfection was a transformed HEK cell line named “PEAK Stable Cells” (likewise from EDGE Biosystems). Functional measurements of the cellular calcium flux after addition of agonist (MCH) in the presence of ligand of the invention took place with the aid of the FLIPR apparatus from Molecular Devices (USA), using protocols of the apparatus manufacturer. The compounds of the invention show a significant inhibition (>30%) of the signal induced by the agonist at a concentration of 100 μM, preferably at 10 μM, particularly preferably at 1 μM, very particularly preferably at 100 nM and even more particularly preferably at 10 nM.

T1 sequence (Q99705 whole entry): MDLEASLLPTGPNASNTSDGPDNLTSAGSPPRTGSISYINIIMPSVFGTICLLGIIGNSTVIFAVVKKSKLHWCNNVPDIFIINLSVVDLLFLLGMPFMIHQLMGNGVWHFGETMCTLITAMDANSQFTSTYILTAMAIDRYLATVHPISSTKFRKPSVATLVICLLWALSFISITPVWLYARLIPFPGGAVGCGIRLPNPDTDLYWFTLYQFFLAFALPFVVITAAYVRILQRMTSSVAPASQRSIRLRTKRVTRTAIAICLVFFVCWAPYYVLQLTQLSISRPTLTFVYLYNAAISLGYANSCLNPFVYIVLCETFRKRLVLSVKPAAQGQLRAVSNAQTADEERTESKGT

`CC(C)C(O)C#Cc1cc2ncn(-c3ccc(N4CCCN(C)CC4)cc3)c(=O)c2s1` (stereo not drawn) [Example 26]: the IC50 turned out to be 1100 nM.
The same measure for `CC(O)C#Cc1cc2ncn(-c3ccc(N4CC[C@@H](N(C)C)C4)cc3)c(=O)c2s1` (stereo partly drawn) [Example 30, 3-[4-((R)-3-Dimethylaminopyrrolidin-1-yl)phenyl]-6-(3-hydroxybut-1-ynyl)-3H-thieno[3,2-d]pyrimidin-4-one]: 380 nM; for `CN(C)[C@@H]1CCN(c2ccc(-n3cnc4cc(C#CC5(O)CCCC5)sc4c3=O)cc2)C1` [Example 32]: 1350 nM; for `CC(O)C#Cc1cc2ncn(-c3ccc(N4CC[C@@H](N(C)CCS(C)(=O)=O)C4)cc3)c(=O)c2s1` (stereo partly drawn) [Example 38]: 440 nM.
For `COCC#Cc1cc2ncn(-c3ccc(N4CC[C@@H](N(C)CCS(C)(=O)=O)C4)cc3)c(=O)c2s1` [Example 39], the IC50 came to 920 nM.
With `CCC(O)C#Cc1cc2ncn(-c3ccc(N4CC[C@@H](N(C)CCS(C)(=O)=O)C4)cc3)c(=O)c2s1` (stereo partly drawn) [Example 40], the concentration for half-maximal inhibition (IC50) is 660 nM.
The same measure for `C[C@@H](O)C#Cc1cc2ncn(-c3ccc(N4CC[C@@H](N5CCCC5)C4)c(F)c3)c(=O)c2s1` [Example 42]: 180 nM; for `CS(=O)(=O)CCN1CCCN(c2ccc(-n3cnc4cc(C#CC5CC5)sc4c3=O)cc2)CC1` [Example 44, 6-Cyclopropylethynyl-3-{4-[4-(2-methanesulfonyl-ethyl)-[1,4]diazepan-1-yl]-phenyl}-3H-thieno[3,2-d]pyrimidin-4-one]: 740 nM.
In the case of `CN(C)[C@@H]1CCN(c2ccc(-n3cnc4cc(C#CC5CC5)sc4c3=O)cc2)C1` [Example 45, 6-Cyclopropylethynyl-3-[4-((R)-3-dimethylamino-pyrrolidin-1-yl)-phenyl]-3H-thieno[3,2-d]pyrimidin-4-one], the 50% inhibitory concentration (IC50) was found to be 110 nM.
With `COCC#Cc1cc2ncn(-c3ccc(N4CC[C@@H](N(C)C)C4)c(F)c3)c(=O)c2s1` [Example 47], the 50% inhibitory concentration (IC50) is 230 nM.
For the compound `CC(O)C#Cc1cc2ncn(-c3ccc(N4CC[C@@H](N(C)C)C4)c(F)c3)c(=O)c2s1` (stereo partly drawn) [Example 49], the half-maximal inhibitory concentration (IC50) was 180 nM.
As to `CN(CCS(C)(=O)=O)[C@@H]1CCN(c2ccc(-n3cnc4cc(CCC5CC5)sc4c3=O)cc2)C1` [Example 50, 6-(2-Cyclopropylethyl)-3-(4-{(R)-3-[(2-methanesulfonylethyl)methylamino]pyrrolidin-1-yl}phenyl)-3H-thieno[3,2-d]pyrimidin-4-one], the 50% inhibitory concentration (IC50) was 320 nM.
For `COC(C)(C)CCc1cc2ncn(-c3ccc(N4CC[C@@H](N(C)C)C4)cc3)c(=O)c2s1` [Example 57], the 50% inhibitory concentration (IC50) came out at 2090 nM.
The same measure for `COCCCc1cc2ncn(-c3ccc(N4CC[C@@H](N5CCCC5)C4)c(F)c3)c(=O)c2s1` [Example 61]: 560 nM.
The same measure for `CCC(O)CCc1cc2ncn(-c3ccc(N4CC[C@@H](N5CCCC5)C4)c(F)c3)c(=O)c2s1` (stereo partly drawn) [Example 63]: 240 nM; for `CN(C)[C@@H]1CCN(c2ccc(-n3cnc4cc(N5CCCCC5)sc4c3=O)cc2)C1` [Example 65, 3-[4-((R)-3-Dimethylaminopyrrolidin-1-yl)phenyl]-6-piperidin-1-yl-3H-thieno[3,2-d]pyrimidin-4-one]: 1330 nM; for `CCO/C=C\c1cc2ncn(-c3ccc(N4CCCN(C)CC4)cc3)c(=O)c2s1` [Example 74, 6-((Z)-2-Ethoxyvinyl)-3-[4-(4-methyl[1,4]diazepan-1-yl)phenyl]-3H-thieno[3,2-d]pyrimidin-4-one]: 2950 nM.
Turning to `CN1CCCN(c2ccc(-n3cnc4cc(C(=O)C5CCCC5)sc4c3=O)cc2)CC1` [Example 76, 6-Cyclopentanecarbonyl-3-[4-(4-methyl[1,4]diazepan-1-yl)phenyl]-3H-thieno[3,2-d]pyrimidin-4-one], the concentration for half-maximal inhibition (IC50) is 8740 nM.
With `CN1CCCN(c2ccc(-n3cnc4cc(C(O)C5CCCC5)sc4c3=O)cc2)CC1` (stereo not drawn) [Example 77, 6-(Cyclopentylhydroxymethyl)-3-[4-(4-methyl[1,4]diazepan-1-yl)phenyl]-3H-thieno[3,2-d]-pyrimidin-4-one], the 50% inhibitory concentration (IC50) came out at 9030 nM.
The same measure for `CCCOCc1cc2ncn(-c3ccc(N4CCC(N(C)C)C4)cc3)c(=O)c2s1` (stereo not drawn) [Example 95, 3-[4-(3-Dimethylamino-pyrrolidin-1-yl)-phenyl]-6-propoxymethyl-3H-thieno[3,2-d]pyrimidin-4-one]: 340 nM; for `CN(C)C1CCN(c2ccc(-n3cnc4cc(COCC5CC5)sc4c3=O)cc2)C1` (stereo not drawn) [Example 96, 6-Cyclopropylmethoxymethyl-3-[4-(3-dimethylamino-pyrrolidin-1-yl)-phenyl]-3H-thieno[3,2-d]pyrimidin-4-one]: 600 nM.
